Measured values reported in patent US10444228B2, “Method of screening a candidate compound for inducing bile canalicular function disorders” (Biopredic International, priority 2014, dated 2019).

Key:
Type in all cases: cell-based, human
[1] = test system: differentiated HepaRG cells (bile canalicular lumen); assay: Bile canaliculi lumen morphology by F-actin (phalloidin) / CDFDA imaging; details: for change of bile canaliculus lumen (constriction or swelling): Example 1, 2 h exposure, F-actin phalloidin staining; for change of bile canaliculus lumen (constriction or swelling) / change of biliary lumen (constriction or swelling): differentiated HepaRG cells; for induction of cholestasis (phenotype with swollen lumen) / change of biliary lumen (constriction or swelling): Example 2; for induction of cholestasis (phenotype with swollen lumen): HepaRG cells; for change of biliary lumen (constriction or swelling): F-actin phalloidin and CDFDA staining
Description: Two week DMSO-treated HepaRG cultures were exposed to 50 μM CPZ for 2 h and analyzed at different times during exposure. Constriction was evidenced by F-actin staining using phalloidin.
Comparison of the cytoskeleton organization of control cells versus CPZ and Y27632 treated cultures for 2 h. Fibers of F-actin accumulated at the biliary were labelling by phalloidin and counterstaining of nuclei was performed by Hoechst staining.
ii)—Analysis of the F-actin organization and biliary lumen changes using phalloidin and fluorescent CDFDA staining. After exposure to the candidate compounds, cells were washed twice, fixed with Paraformaldehyde (4%) fixative for 20 min, washed and stained with phalloidin for 10 min. For CDFDA staining, details are provided below.
Images obtained on microscope were used for calculating the size of the biliary lumen after treatment. Appropriate algorithm has been developed for quantification using Cellomics equipment.

[2] = test system: Rho-kinase; assay: Rho-kinase activity (Merck-Millipore kit) in treated cell lysates; details: differentiated HepaRG cells, 2 h, 1-50 μM
Description: Differentiated HepaRG cells were exposed to increased doses of CPZ (from 1-50 μM) for 2 h and Rho-kinase activity was measured (kit Merck-Millipore) according to manufacturer. Untreated cells and cells exposed to the Rho-kinase inhibitor Y27632 (10 μM) were used for controls.

[3] = test system: ZO-1; assay: Immunolocalization of junctional protein ZO-1; details: treated HepaRG cultures
[4] = test system: phosphorylated myosin light chain (P-MYL9); assay: Western blotting of phosphorylated myosin light chain; details: for P-myosin (P-MYL9) level by western blotting: Example 2, after 1 hour
Description: Accumulation of phosphorylated light chain myosin was evidenced by western blotting technique in using the (P)-MYl2 antibody. Control cells, 2h-CPZ treated cells and 2h-y27632-treated cells were compared. Cell lysates were prepared.
Accumulation of the phosphorylated myosin light chain was performed by western blotting using p-Myl antibody.

[5] = test system: HepaRG cells (canalicular efflux); assay: Efflux of [3H]-taurocholate
Description: Efflux of Taurocholate (TA). Cells were first exposed to [3H]-TA for 30 min, then washed with PBS and incubated with or without CPZ at different time points (from 0 to 6 hours) in a standard buffer with Ca2+ and Mg2+. After the incubation time, cells were washed with PBS and incubated for 5 min with a Ca2+ and Mg2+− free buffer in order to disrupt the canalicular tight junctions. Then they were scraped in 0.1 N NaOH; the remaining radiolabeled substrate was measured through scintillation counting to determinate TA efflux. To discriminate between basolateral and canalicular efflux, cells were incubated in parallel in either standard or Ca2+ and Mg2+-free buffer for 30 minutes after TA uptake before measuring the remaining radiolabeled TA. Canalicular efflux was calculated using this equation: Canalicular efflux: Radioactivity in efflux mediumCa2+ and Mg2+ free buffer—Radioactivity in efflux medium Standard buffer. Differentiated cells were exposed or not to CPZ (50 μM for 2 h) before radiolabelled TA addition.

[6] = test system: differentiated HepaRG cells (canalicular clearance); assay: Biliary clearance activity with CDFDA marker compound; details: versus control cells
Description: The first step was incubation with the marker compound. CDFDA was preferentially used. After washing, differentiated cells plated in wells from 24 well-plates, were washed with HBSS buffer twice and incubated with 250 μl of CDFDA solution prepared at the final concentration of 3 μM in HBSS buffer containing Ca++ buffer (pH 7.4). After 30 min cells were washed with the same buffer. […] Quantification of the fluorescent dye into the medium is performed. A comparative evolution was established between control (untreated) and CPZ- and EF-treated cells. […] Calculation of the amount of released fluorescent dye molecules was performed by spectrometry and the canalicular clearance efficiency (CCE) was determined per time unit.

[7] = test system: differentiated HepaRG cells (canalicular clearance); assay: Biliary clearance with Rhodamin 123 marker compound
Description: Another assay was performed with Rhodamin 123 as marker compound.

[8] = test system: HepaRG cells; assay: Accumulation of labelled taurocholate in cells including canaliculi space; details: increased concentrations, compared to control
From the text: The data also provides information related to junctional complex organization and the role of metalloproteinases in controlling permeability.

Row | Compound | change of bile canaliculus lumen (constriction or swelling) [1] | induction of cholestasis (phenotype with swollen lumen) [1] | change of biliary lumen (constriction or swelling) [1] | Rho-kinase activity [2] | distribution of ZO-1 at the biliary pole [3] | P-myosin (P-MYL9) level by western blotting [4] | other results
1 | S=C=Nc1cccc2ccccc12 [ANIT] | inducing lumen constriction | inducing cholestasis | relaxation/swelling | activate the Rho-kinase activity | appears normal |  | 
2 | CC(=O)/C(C)=N/O [BDM] |  |  |  |  |  | inhibition of P-myosin phosphorylation | 
3 | CN(C)CCCN1c2ccccc2Sc2ccc(Cl)cc21 [CPZ, chlorpromazine] | Constriction of canaliculus lumen |  | lumen constriction | dose-dependent activation of Rho-kinase | appears normal | accumulation of P-myosin | change of bile canaliculus lumen (constriction or swelling) ([1]; listed as chlorpromazine): constriction of the canaliculus lumen; change of biliary lumen (constriction or swelling) ([1]; listed as chlorpromazine): abnormal and permanent lumen constriction; taurocholate efflux ([5]; CPZ 50 μM): decrease of taurocholate efflux; myosin-light chain phosphorylation (immunoblotting) ([4]; Example 1, 2 h treated HepaRG cells): accumulation of myosin-light chain phosphorylation; clearance of CDFDA dye out of the canalicular space [6]: delay in the clearance of dye; clearance of CDFDA dye out of the canalicular space ([6]; listed as chlorpromazine): delay of clearance; clearance of Rhodamin 123 dye [7]: delay
4 | C[C@H](CCC(=O)O)[C@H]1CC[C@H]2[C@@H]3CC[C@@H]4C[C@H](O)CC[C@]4(C)[C@H]3C[C@H](O)[C@]12C [DCA, Deoxycholic acid] |  | inducing cholestasis |  |  |  |  | 
5 | O=S(=O)(c1cccc2cnccc12)N1CCCNCC1 [Fasudil] |  | inducing cholestasis | relaxation/swelling |  | appears normal |  | accumulation of labelled taurocholate in cells including canaliculi space [8]: abnormal accumulation of labelled taurocholate; accumulation of labelled taurocholate in cells including canaliculi space ([8]; listed as fasudil): highest values
6 | C=CC[C@@H]1/C=C(\C)C[C@H](C)C[C@H](OC)[C@H]2O[C@@](O)(C(=O)C(=O)N3CCCC[C@H]3C(=O)O[C@H](/C(C)=C/[C@@H]3CC[C@@H](O)[C@H](OC)C3)[C@H](C)[C@@H](O)CC1=O)[C@H](C)C[C@@H]2OC [Fk, Tacrolimus] | inducing lumen constriction |  |  | activate the Rho-kinase activity |  |  | 
7 | C[C@@H](N)[C@H]1CC[C@H](C(=O)Nc2ccncc2)CC1 [Y27632] | swelling/relaxation |  | swelling |  |  | inhibition of P-myosin phosphorylation | taurocholate efflux with Rho-kinase inhibitor added to CPZ ([5]; in presence of CPZ): recovery of taurocholate efflux activity; accumulation of labelled taurocholate in cells including canaliculi space [8]: abnormal accumulation of labelled taurocholate; clearance of CDFDA dye out of the canalicular space [6]: delay in biliary clearance; clearance of CDFDA dye out of the canalicular space ([6]; listed as EF): delay in the clearance of dye; clearance of Rhodamin 123 dye [7]: delay
8 | COc1ccccc1Oc1c(NS(=O)(=O)c2ccc(C(C)(C)C)cc2)nc(-c2ncccn2)nc1OCCO [bosentan] |  |  | abnormal and prolonged canalicular lumen swelling |  |  |  | 
9 | Cyclosporin A [CsA] | inducing lumen constriction |  | lumen constriction | activate the Rho-kinase activity |  | accumulation of P-myosin | change of biliary lumen (constriction or swelling) ([1]; listed as cyclosporine A): constriction
